Key:
IRAK4 = biological target: T1, IRAK4 (Homo sapiens, UniProt Q9NWZ3); test: IRAK4 Inhibition Assay (kinase reaction, Caliper capillary electrophoresis); type: biochemical; details: 500 μM ATP, 11 concentrations
T1 construct: 1 nM IRAK4 (160-460); purchased SignalChem M24016
T1 sequence (Q9NWZ3 160-460): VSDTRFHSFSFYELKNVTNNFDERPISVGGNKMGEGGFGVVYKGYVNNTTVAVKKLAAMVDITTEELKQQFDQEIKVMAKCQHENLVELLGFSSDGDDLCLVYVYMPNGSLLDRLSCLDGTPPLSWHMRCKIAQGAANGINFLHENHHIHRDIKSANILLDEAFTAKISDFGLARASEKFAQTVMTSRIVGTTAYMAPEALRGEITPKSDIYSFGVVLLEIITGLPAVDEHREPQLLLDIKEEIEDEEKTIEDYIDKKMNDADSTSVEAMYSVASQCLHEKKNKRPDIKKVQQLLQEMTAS
Procedure: (§1) The reactions were incubated out for three hours and quenched with 1 mM EDTA solution. The reaction incubation time and enzyme concentration were optimized to obtain a maximum peptide substrate conversion of 20-30%. The reaction mixtures were analyzed by capillary electrophoresis on a Caliper LabChip EZ Reader to resolve phosphorylated and unphosphorylated peptide species and determine peptide substrate conversion. […] The compounds were dissolved in DMSO and evaluated at 11 concentrations to determine IC50 values.

HPK1 = biological target: T2, HPK1 (Homo sapiens, UniProt Q92918); test: HPK1 Inhibition Assay (kinase reaction, Caliper capillary electrophoresis); type: biochemical; details: for IC50: 0.625 nM HPK1, 22 μM ATP, 11 concentrations, read-out: HPK1 IC50; for IRAK4/HPK1 Ratio: ratio of the IRAK4 IC50 value to the HPK1 IC50 value
T2 construct: purchased SignalChem M23-11G
T2 sequence (Q92918 1-346 limits assumed): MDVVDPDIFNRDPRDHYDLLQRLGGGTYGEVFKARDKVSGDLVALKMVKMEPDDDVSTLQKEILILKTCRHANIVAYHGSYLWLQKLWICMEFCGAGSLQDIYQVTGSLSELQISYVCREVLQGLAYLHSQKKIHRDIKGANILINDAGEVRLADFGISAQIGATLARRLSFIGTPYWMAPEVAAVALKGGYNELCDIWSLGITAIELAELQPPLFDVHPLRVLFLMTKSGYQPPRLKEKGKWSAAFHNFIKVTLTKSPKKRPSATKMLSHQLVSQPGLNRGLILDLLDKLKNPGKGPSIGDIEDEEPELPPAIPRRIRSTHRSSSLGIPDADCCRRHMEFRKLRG
Procedure: as §1, with “to determine the IC50 values.” for “to determine IC50 values.”

| Structure (SMILES) | IC50 (IRAK4) | IC50 (HPK1) | IRAK4/HPK1 Ratio (HPK1) |
| --- | --- | --- | --- |
| CC1(C)OC(=O)c2ccc(Nc3ncc(-c4nnc(C5(C(F)(F)F)CC5)o4)c(N[C@H](CO)c4ccccc4)n3)cc21 [Example 68, 5-[(4-{[(1S)-2-hydroxy-1-phenylethyl]amino}-5-{5-[1-(trifluoromethyl)cyclopropyl]-1,3,4-oxadiazol-2-yl}pyrimidin-2-yl)amino]-3,3-dimethyl-1,3-dihydro-2-benzofuran-1-one] | 250 to 1000 nM | < 50 nM | B (B=10 to 50) |
| CC1(C)OC(=O)c2ccc(Nc3ncc(-c4nc(C56CC(N)(C5)C6)no4)c(N[C@H](CO)c4ccccc4)n3)cc21 [Example 47, 5-{[5-(3-{3-aminobicyclo[1.1.1]pentan-1-yl}-1,2,4-oxadiazol-5-yl)-4-{[(1S)-2-hydroxy-1-phenylethyl]amino}pyrimidin-2-yl]amino}-3,3-dimethyl-1,3-dihydro-2-benzofuran-1-one] | 250 to 1000 nM | < 50 nM | C (C=>50) |
| CN(C)CCCNC(=O)c1cnc(Nc2ccc3c(c2)C(C)(C)OC3=O)nc1N[C@H](CO)c1ccccc1 [Example 5, 2-[(3,3-dimethyl-1-oxo-1,3-dihydro-2-benzofuran-5-yl)amino]-N-[3-(dimethylamino)propyl]-4-{[(1S)-2-hydroxy-1-phenylethyl]amino}pyrimidine-5-carboxamide] | 250 to 1000 nM | < 50 nM | B (B=10 to 50) |
| CC/N=C(\NCCCN(C)C)NNC(=O)c1cnc(Nc2ccc3c(c2)C(C)(C)OC3=O)nc1N[C@H](CO)c1ccccc1 [Example 59, 1-({2-[(3,3-dimethyl-1-oxo-1,3-dihydro-2-benzofuran-5-yl)amino]-4-{[(1S)-2-hydroxy-1-phenylethyl]amino}pyrimidin-5-yl}formohydrazido)-N-[3-(dimethylamino)propyl]-N′-ethylmethanimidamide] | 250 to 1000 nM | < 50 nM | B (B=10 to 50) |
| CC1(C)OC(=O)c2ccc(Nc3ncc(C(=O)NNC(=O)c4cnccn4)c(N[C@H](CO)c4ccccc4)n3)cc21 [Example 58, N′-{2-[(3,3-dimethyl-1-oxo-1,3-dihydro-2-benzofuran-5-yl)amino]-4-{[(1S)-2-hydroxy-1-phenylethyl]amino}pyrimidine-5-carbonyl} pyrazine-2-carbohydrazide] | 250 to 1000 nM | < 50 nM | B (B=10 to 50) |
| O=C1OC2(CCCC2)c2nc(Nc3cc(N[C@H](CO)c4ccccc4)c(-c4nc(C5CC5)no4)cn3)ccc21 [Example 87, (S)-2′-((5-(3-cyclopropyl-1,2,4-oxadiazol-5-yl)-4-((2-hydroxy-1-phenylethyl)amino)pyridin-2-yl)amino)-5′H-spiro[cyclopentane-1,7′-furo[3,4-b]pyridin]-5′-one] | 50 to 250 nM | < 50 nM | B (B=10 to 50) |
| CC1(C)OC(=O)c2ccc(Nc3cc(N[C@H](CO)c4ccccc4)c(-c4nnc(C5(C#N)CC5)o4)cn3)nc21 [Example 88, 1-{5-[6-({7,7-dimethyl-5-oxo-5H,7H-furo[3,4-b]pyridin-2-yl}amino)-4-{[(1S)-2-hydroxy-1-phenylethyl]amino}pyridin-3-yl]-1,3,4-oxadiazol-2-yl}cyclopropane-1-carbonitrile] | 250 to 1000 nM | < 50 nM | C (C=>50) |
| Cc1noc(-c2cnc(Nc3ccc4c(c3)C(C)(C)OC4=O)nc2Nc2ccc3[nH]ncc3c2)n1 [Example 74, 5-({4-[(1H-indazol-5-yl)amino]-5-(3-methyl-1,2,4-oxadiazol-5-yl)pyrimidin-2-yl}amino)-3,3-dimethyl-1,3-dihydro-2-benzofuran-1-one] | 250 to 1000 nM | 50 to 250 nM | B (B=10 to 50) |
| CCn1nc(-c2cnc(Nc3ccc4c(c3)C(C)(C)OC4=O)nc2N[C@H](CO)c2ccccc2)oc1=O [Example 53, 5-{2-[(3,3-dimethyl-1-oxo-1,3-dihydro-2-benzofuran-5-yl)amino]-4-{[(1S)-2-hydroxy-1-phenylethyl]amino}pyrimidin-5-yl}-3-ethyl-2,3-dihydro-1,3,4-oxadiazol-2-one] | 250 to 1000 nM | < 50 nM | C (C=>50) |
| CC1(C)OC(=O)c2ccc(Nc3ncc(C(=O)NCCCn4ccnc4)c(N[C@H](CO)c4ccccc4)n3)cc21 [Example 19, 2-[(3,3-dimethyl-1-oxo-1,3-dihydro-2-benzofuran-5-yl)amino]-4-{[(1S)-2-hydroxy-1-phenylethyl]amino}-N-[3-(1H-imidazol-1-yl)propyl]pyrimidine-5-carboxamide] | 250 to 1000 nM | < 50 nM | B (B=10 to 50) |
| CCCCc1noc(-c2cnc(Nc3ccc4c(c3)C(C)(C)OC4=O)nc2N[C@H](CO)c2ccccc2)n1 [Example 36, 5-{[5-(3-butyl-1,2,4-oxadiazol-5-yl)-4-{[(1S)-2-hydroxy-1-phenylethyl]amino}pyrimidin-2-yl]amino}-3,3-dimethyl-1,3-dihydro-2-benzofuran-1-one] | 250 to 1000 nM | < 50 nM | C (C=>50) |
| Cc1cnc(CNC(=O)c2cnc(Nc3ccc4c(c3)C(C)(C)OC4=O)nc2N[C@H](CO)c2ccccc2)cn1 [Example 20, 2-[(3,3-dimethyl-1-oxo-1,3-dihydro-2-benzofuran-5-yl)amino]-4-{[(1S)-2-hydroxy-1-phenylethyl]amino}-N-[(5-methylpyrazin-2-yl)methyl]pyrimidine-5-carboxamide] | 250 to 1000 nM | < 50 nM | B (B=10 to 50) |
| CC(C)CNC(=O)c1cnc(Nc2ccc3c(c2)C(C)(C)OC3=O)nc1N[C@H](CO)c1ccccc1 [Example 12, 2-[(3,3-dimethyl-1-oxo-1,3-dihydro-2-benzofuran-5-yl)amino]-4-{[(1S)-2-hydroxy-1-phenylethyl]amino}-N-(2-methylpropyl)pyrimidine-5-carboxamide] | 250 to 1000 nM | < 50 nM | B (B=10 to 50) |
| CC1(C)OC(=O)c2ccc(Nc3ncc(-c4nnc(-c5ccccn5)o4)c(N[C@H](CO)c4ccccc4)n3)cc21 [Example 66, 5-[(4-{[(1S)-2-hydroxy-1-phenylethyl]amino}-5-[5-(pyridin-2-yl)-1,3,4-oxadiazol-2-yl]pyrimidin-2-yl)amino]-3,3-dimethyl-1,3-dihydro-2-benzofuran-1-one] | 250 to 1000 nM | 50 to 250 nM | B (B=10 to 50) |
| CC1(C)OC(=O)c2ccc(Nc3cc(N[C@H](CO)c4ccccc4)c(-c4nc(C5CC5)no4)cn3)cc21 [Example 78, 5-{[5-(3-cyclopropyl-1,2,4-oxadiazol-5-yl)-4-{[(1S)-2-hydroxy-1-phenylethyl]amino}pyridin-2-yl]amino}-3,3-dimethyl-1,3-dihydro-2-benzofuran-1-one] | 250 to 1000 nM | 50 to 250 nM | B (B=10 to 50) |
| CC1(C)OC(=O)c2ccc(Nc3cc(NCc4cccnc4)c(-c4nc(C56CCN(CC5)CC6)no4)cn3)nc21 [Example 85, 2-{[5-(3-{1-azabicyclo[2.2.2]octan-4-yl}-1,2,4-oxadiazol-5-yl)-4-{[(pyridin-3-yl)methyl]amino}pyridin-2-yl]amino}-7,7-dimethyl-5H,7H-furo[3,4-b]pyridin-5-one] | 250 to 1000 nM | < 50 nM | C (C=>50) |
| CCOC(=O)c1cnc(Nc2ccc3c(c2)C(C)(C)OC3=O)nc1NCc1ccccc1C(C)(C)O [Example 71, Ethyl 2-[(3,3-dimethyl-1-oxo-1,3-dihydro-2-benzofuran-5-yl)amino]-4-({[2-(2-hydroxypropan-2-yl)phenyl]methyl}amino)pyrimidine-5-carboxylate] | 250 to 1000 nM | < 50 nM | B (B=10 to 50) |
| CC(C)(CN)CNc1nc(Nc2ccc3c(c2)C(C)(C)OC3=O)ncc1-c1nc(C2CCOCC2)no1 [Example 77, 5-({4-[(3-amino-2,2-dimethylpropyl)amino]-5-[3-(oxan-4-yl)-1,2,4-oxadiazol-5-yl]pyrimidin-2-yl}amino)-3,3-dimethyl-1,3-dihydro-2-benzofuran-1-one] | 250 to 1000 nM | < 50 nM | C (C=>50) |
